We go through five molecules from patent US9505767B2, “Pyrazolo[1,5-A]pyrimidin-7(4H)-onehistone demethylase inhibitors” (Genentech, Inc., priority 2013, dated 2016).

The target in assay [1] is T1, KDM5A (Homo sapiens, UniProt P29375).
T1 construct: Full length recombinant Flag tagged KDM5A protein was purified from Sf9 insect cells; Flag; made in house; host or cells: Sf9 insect cells
Description: KDM5A Demethylase Assay (TR-FRET Assay-C). In kind it is biochemical. As to conditions: full length recombinant Flag tagged KDM5A, 2 nM, HEPES pH 7.0, 1 μM α-ketoglutarate, read-out: C KDM5A HTRF (IC50). How it is done: Full length recombinant Flag tagged KDM5A protein was purified from Sf9 insect cells. The demethylation reaction buffer contained 50 mM HEPES pH 7.0, 0.01% Triton X-100, 0.5 mM ascorbate, 2 mM DTT, 1 μM α-ketoglutarate, and 100 μM Fe2(NH4)2(SO4)2. In a 10 μL demethylation reaction system, 2 nM recombinant KDM5A was added to compounds in the above buffer (Vt 5 uL) in a 384 well Proxi Plate (Perkin Elmer Corp.) and then 0.1 μM biotinylated H3K9me1 peptide (1-21 aa, New England Peptide, Vt 5 uL) was added to initiate the reaction (Vt 10 uL). (All protein/reagent concentrations are final concentrations.) Reactions were incubated for 30 minutes at room temperature, and then quenched by addition of 5 uL stop buffer (3 mM EDTA, 50 mM TrisCl pH 7.5, 0.01% Triton X-100, 0.01 mg/mL BSA) followed by addition of 5 uL of detection reagents (buffer as above without EDTA but with addition of 200 nM SA-XL665 (CisBio) and 2 nM Eu(W1024)-anti-H3K4Me1-2 antibody (PerkinElmer)). After a 30 minute incubation assays were read on a Perkin-Elmer Envision equipped with appropriate filters. IC50s were calculated using standard dose-response equations and relative to a Max (no inhibition) and Min (no enzyme or quenched enzyme) controls.

In assay [2] the target is T1, KDM5A. Nature of the assay: KDM5A Demethylase Assay (MassSpec Assay-A). The class given is biochemical. To be noted: full length recombinant Flag tagged KDM5A, 20 nM; MassSpec readout; biotinylated H3K9me1 peptide 4.0 μM; read-out: A KDM5A MS (IC50). How it is done: Full length recombinant Flag tagged KDM5A protein was purified from […] insect cells. The demethylation reaction buffer contained 50 mM TrisCl pH 7.4, 0.01% Triton X-100, 0.025 mg/mL BSA, 1 mM ascorbate (Cat# A4034, Sigma Aldrich), 2 mM TCEP (Cat# D9779, Sigma Aldrich), 2.0 μM α-ketoglutarate (# K2010, Sigma Aldrich) and 50 μM Fe2(NH4)2(SO4)2 (Cat# F1543, Sigma Aldrich). In a 25 μL demethylation reaction system, 20 nM recombinant KDM5A and was incubated with compounds for 10 minutes in the above buffer, and then […] (# K2010, Sigma Aldrich), 4.0 μM biotinylated H3K9me1 peptide (1-21 aa), and Fe2(NH4)2(SO4)2 were added to initiate the reaction. (All reagent concentrations are final reagent concentrations.) Reactions were incubated for 30 minutes at room temperature, and then quenched by addition of an equal volume of 1% formic acid. After termination, plates were sealed and frozen at −80° C. for analysis.

Molecules are shown by their SMILES. pIC50: −log10 of the molar value.

T1 sequence (P29375 whole entry): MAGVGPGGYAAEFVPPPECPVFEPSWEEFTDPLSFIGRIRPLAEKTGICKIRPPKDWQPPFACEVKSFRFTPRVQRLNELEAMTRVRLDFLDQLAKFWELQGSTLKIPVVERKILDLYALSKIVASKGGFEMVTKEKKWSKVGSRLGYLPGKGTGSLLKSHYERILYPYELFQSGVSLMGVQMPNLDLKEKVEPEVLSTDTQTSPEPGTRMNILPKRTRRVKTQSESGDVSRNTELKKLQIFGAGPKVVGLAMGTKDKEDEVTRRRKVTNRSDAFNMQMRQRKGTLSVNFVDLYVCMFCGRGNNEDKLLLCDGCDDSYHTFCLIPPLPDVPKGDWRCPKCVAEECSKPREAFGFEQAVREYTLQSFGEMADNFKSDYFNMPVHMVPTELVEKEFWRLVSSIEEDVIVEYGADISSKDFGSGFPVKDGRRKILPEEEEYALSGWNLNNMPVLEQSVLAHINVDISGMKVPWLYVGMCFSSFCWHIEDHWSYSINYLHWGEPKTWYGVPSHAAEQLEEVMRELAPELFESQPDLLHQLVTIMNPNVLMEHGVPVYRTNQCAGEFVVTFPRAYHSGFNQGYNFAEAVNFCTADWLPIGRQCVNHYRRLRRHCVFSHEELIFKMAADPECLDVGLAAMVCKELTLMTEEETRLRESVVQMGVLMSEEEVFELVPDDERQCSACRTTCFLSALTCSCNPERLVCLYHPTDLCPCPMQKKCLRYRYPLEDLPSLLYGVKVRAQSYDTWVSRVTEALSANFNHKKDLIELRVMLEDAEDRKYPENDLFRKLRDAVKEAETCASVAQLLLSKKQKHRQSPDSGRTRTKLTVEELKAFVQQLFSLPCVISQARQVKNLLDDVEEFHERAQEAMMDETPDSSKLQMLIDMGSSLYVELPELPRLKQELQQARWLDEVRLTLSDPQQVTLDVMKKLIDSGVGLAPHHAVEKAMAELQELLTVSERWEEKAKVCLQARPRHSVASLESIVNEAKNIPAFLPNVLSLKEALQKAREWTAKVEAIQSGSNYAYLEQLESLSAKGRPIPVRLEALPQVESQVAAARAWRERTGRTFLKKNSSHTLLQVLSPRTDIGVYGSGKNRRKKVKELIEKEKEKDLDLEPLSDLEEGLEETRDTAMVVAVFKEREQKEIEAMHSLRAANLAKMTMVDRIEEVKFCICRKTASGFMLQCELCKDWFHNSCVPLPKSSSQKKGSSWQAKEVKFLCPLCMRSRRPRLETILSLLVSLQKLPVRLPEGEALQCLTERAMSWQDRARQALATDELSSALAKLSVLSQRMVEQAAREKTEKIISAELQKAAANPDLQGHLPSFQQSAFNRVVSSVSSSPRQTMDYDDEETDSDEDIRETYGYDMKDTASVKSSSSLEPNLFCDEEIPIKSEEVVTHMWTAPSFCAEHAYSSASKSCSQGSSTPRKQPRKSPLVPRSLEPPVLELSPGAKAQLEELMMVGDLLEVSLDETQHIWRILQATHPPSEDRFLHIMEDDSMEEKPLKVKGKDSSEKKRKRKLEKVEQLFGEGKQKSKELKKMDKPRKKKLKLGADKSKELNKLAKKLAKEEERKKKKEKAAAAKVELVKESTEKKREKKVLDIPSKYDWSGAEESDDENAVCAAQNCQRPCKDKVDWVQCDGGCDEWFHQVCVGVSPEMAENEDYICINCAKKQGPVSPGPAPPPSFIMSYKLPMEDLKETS

Consider `Cc1ccc(-n2cc(-c3cnn4c(=O)c(C5CC5)c(C)[nH]c34)cn2)nc1` [Example 27, 6-cyclopropyl-5-methyl-3-(1-(5-methylpyridin-2-yl)-1H-pyrazol-4-yl)pyrazolo[1,5-a]pyrimidin-7(4H)-one], for which the pIC50 in assay [1] is 7.48.
Still for that read-out and setting: the same measure for `O=c1c2c([nH]c3c(-c4cnn(-c5ccccn5)c4)cnn13)CCC2` [Example 42, 3-(1-(pyridin-2-yl)-1H-pyrazol-4-yl)-6,7-dihydro-4H-cyclopenta[d]pyrazolo[1,5-a]pyrimidin-8(5H)-one]: 7.49.
On to `Cc1[nH]c2c(-n3cnc(-c4ccccn4)c3)cnn2c(=O)c1C(C)C` [Example 46, 6-isopropyl-5-methyl-3-(4-(pyridin-2-yl)-1H-imidazol-1-yl)pyrazolo[1,5-a]pyrimidin-7(4H)-one], for which the pIC50 in assay [1] is 7.63.
As for `CCc1c(C)[nH]c2c(-n3cncc3I)cnn2c1=O` [Example 81, 6-ethyl-3-(5-iodo-1H-imidazol-1-yl)-5-methylpyrazolo[1,5-a]pyrimidin-7(4H)-one], in assay [2], the pIC50 is 5.52.
Same read-out and setting: as for `CCc1c(C)[nH]c2c(-n3cnc4ccccc43)cnn2c1=O` [Example 82, 3-(1H-benzo[d]imidazol-1-yl)-6-ethyl-5-methylpyrazolo[1,5-a]pyrimidin-7(4H)-one], the figure is 4.10.
